Experimental data taken from US10590086B2, “Pharmaceutical compound” (IOmet Pharma Ltd., priority 2014, dated 2020).

Key:
[1] = biological target: TDO (Homo sapiens, UniProt P48775); assay: A172 kynurenine cell-based assay; parameters: This assay utilised cancer cells which expressed either TDO or IDO; endogenous in cells; host or cells: A172 (human glioblastoma); details: A172 human glioblastoma cells, 48 hours, 500 μM L-tryptophan; read-out: A172 Kynurenine cell based assay pIC50 (converted)
Method: (§1) Exemplary compounds of the invention were prepared, and tested to determine their effect as TDO and/or IDO inhibitors. Two different assays were employed: 1. a cell-based assay for detecting the effect of test compounds on kynurenine production in two different cancer cell types. This assay utilised cancer cells which expressed either TDO or IDO and as such was used as a means of testing compound activity at these two enzymes in a cell-based context. 2. a TDO and IDO biochemical coupled assay which utilised recombinantly produced and purified TDO and IDO enzymes in combination with the enzyme formamidase. This coupled enzyme system allowed conversion of N-formylkynurenine produced by TDO or IDO activity to kynurenine which was then quantified by fluorescence following addition of Erhlich's Reagent The protocols for these are set out below.
(§2) Cell Based Assay for Detection of Kynurenine Produced by TDO and/or IDO
(§3) A172 (human glioblastoma) and SKOV3 (human ovarian adenocarcinoma) cells were seeded in a 96 well plate at 30,000 or 40,000 cells per well respectively in phenol red-free RPMI supplemented with 10% FCS, 2 mM L-glutamine and 500 μM L-tryptophan. IDO expression was induced in the SKOV3 cells by the addition of 500 ng/ml IFN-γ. Cells were incubated at 37° C. with or without the addition of test compound. After 48 hours, the cells were removed by centrifugation and Erhlich's reagent was added to the supernatant. The Erhlich's reagent was incubated for 5 minutes before the absorbance was read at 490 nm.

[2] = biological target: IDO (Homo sapiens, UniProt P14902); assay: SKOV3 kynurenine cell-based assay (IDO induced by IFN-γ); parameters: IDO expression was induced in the SKOV3 cells by the addition of 500 ng/ml IFN-γ; endogenous in cells; host or cells: SKOV3 (human ovarian adenocarcinoma), induced with IFN-γ; details: SKOV3 human ovarian adenocarcinoma cells, 500 ng/ml IFN-γ, 48 hours, 500 μM L-tryptophan; read-out: SKOV3 Kynurenine cell based assay pIC50 (converted)
Sequence of IDO (P14902 whole entry): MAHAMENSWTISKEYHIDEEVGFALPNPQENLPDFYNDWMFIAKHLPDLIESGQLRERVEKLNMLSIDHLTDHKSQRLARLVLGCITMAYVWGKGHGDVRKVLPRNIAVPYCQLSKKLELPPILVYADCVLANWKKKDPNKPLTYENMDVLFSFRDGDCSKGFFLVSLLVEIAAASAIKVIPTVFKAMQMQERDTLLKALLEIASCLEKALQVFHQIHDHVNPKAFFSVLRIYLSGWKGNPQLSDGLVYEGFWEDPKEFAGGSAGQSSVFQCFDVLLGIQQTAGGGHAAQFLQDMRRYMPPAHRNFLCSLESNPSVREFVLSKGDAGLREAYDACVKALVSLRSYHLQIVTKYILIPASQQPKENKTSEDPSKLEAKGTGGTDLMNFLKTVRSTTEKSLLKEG
Method: as §1, §2, §3

Sequence of TDO (P48775 whole entry): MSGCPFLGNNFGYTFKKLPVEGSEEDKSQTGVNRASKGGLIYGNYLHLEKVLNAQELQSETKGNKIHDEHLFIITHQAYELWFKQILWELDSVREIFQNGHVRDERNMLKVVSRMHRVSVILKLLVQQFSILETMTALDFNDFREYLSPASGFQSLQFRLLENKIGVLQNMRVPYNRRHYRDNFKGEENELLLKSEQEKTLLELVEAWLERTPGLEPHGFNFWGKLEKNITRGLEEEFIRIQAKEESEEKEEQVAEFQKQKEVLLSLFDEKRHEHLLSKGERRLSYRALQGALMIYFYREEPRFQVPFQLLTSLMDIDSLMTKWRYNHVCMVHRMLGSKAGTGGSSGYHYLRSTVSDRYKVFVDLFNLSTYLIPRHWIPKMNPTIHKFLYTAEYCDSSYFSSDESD

IC50 [1] [µM] | IC50 [2] [µM] | SMILES
< 3.16 | 3.24 to 31.6 | CN1CC2CN(c3cc(Cl)cc4[nH]ncc34)CCN2C1=O (centres unmarked) [Compound 122]
> 100 | 32.4 to 100 | COCCS(=O)(=O)N1CCN(c2cccc3[nH]ncc23)CC1 [Compound 23]
< 3.16 | 3.24 to 31.6 | COCCS(=O)(=O)N1CCN(c2cc(Cl)cc3[nH]ncc23)CC1 [Compound 64]
< 3.16 | 3.24 to 31.6 | CC1(C)CC(c2cc(C(F)(F)F)cc3[nH]ncc23)CCN1S(C)(=O)=O (centres unmarked) [Compound 154]
< 3.16 | 3.24 to 31.6 | O=C(C1CC1)N1CCN(c2cc(Cl)cc3[nH]ncc23)CC1 [Compound 107]
< 3.16 | 3.24 to 31.6 | O=S(=O)(C1CCCC1)N1CCC(c2cc(Cl)cc3[nH]ncc23)CC1 [Compound 143]
< 3.16 | 3.24 to 31.6 | COCC(=O)N1CCC(c2cc(Cl)cc3[nH]ncc23)CC1 [Compound 176]
< 3.16 | 3.24 to 31.6 | NS(=O)(=O)N1CCN(c2cc(Cl)cc3[nH]ncc23)CC1 [Compound 81]
< 3.16 | 3.24 to 31.6 | O=S(=O)(c1ccccc1)N1CCN(c2cc(Cl)cc3[nH]ncc23)CC1 [Compound 55]
< 3.16 | 3.24 to 31.6 | O=C(N1CCC(c2cc(Cl)cc3[nH]ncc23)CC1)C1(O)CC1 [Compound 195]
< 3.16 | 3.24 to 31.6 | CCCS(=O)(=O)N1CCC(c2cc(Cl)cc3[nH]ncc23)CC1 [Compound 140]
< 3.16 | < 3.16 | CN1C(=O)NC2(CCN(c3cc(Cl)cc4[nH]ncc34)CC2)C1=O [Compound 144]
3.24 to 31.6 | > 100 | CS(=O)(=O)N1CCN(c2cc(C3CC3)cc3[nH]ncc23)CC1 [Compound 101]
< 3.16 | 3.24 to 31.6 | CNS(=O)(=O)N1CCC(c2cc(Cl)cc3[nH]ncc23)CC1 [Compound 172]
< 3.16 | 3.24 to 31.6 | CNC(=O)N1CCC(c2cc(Cl)cc3[nH]ncc23)CC1 [Compound 150]
< 3.16 | > 100 | O=C(C1COC1)N1CCC(c2cc(Cl)cc3[nH]ncc23)CC1 [Compound 205]
< 3.16 | 32.4 to 100 | CC(C)C(=O)N1CCC(c2cc(Cl)cc3[nH]ncc23)CC1 [Compound 166]
< 3.16 | 3.24 to 31.6 | CC(O)C(=O)N1CCC(c2cc(Cl)cc3[nH]ncc23)CC1 (centres unmarked) [Compound 177]

IC50 [1] [µM] | IC50 [2] [µM] | SMILES
< 3.16 | 3.24 to 31.6 | CS(=O)(=O)N1CCC(c2cc(C(F)(F)F)cc3[nH]ncc23)CC1 [Compound 100]
< 3.16 | 3.24 to 31.6 | O=S(=O)(Cc1ccccc1)N1CCC(c2cc(Cl)cc3[nH]ncc23)CC1 [Compound 115]
3.24 to 31.6 | 32.4 to 100 | CS(=O)(=O)N1CCC(Oc2cccc3[nH]ncc23)CC1 [Compound 52]
32.4 to 100 | > 100 | CS(=O)(=O)N1CCC(Nc2cccc3[nH]ncc23)CC1 [Compound 75]
< 3.16 | 3.24 to 31.6 | CS(=O)(=O)N1CCN(c2cc(Cl)cc3[nH]ncc23)CC12CC2 [Compound 94]
< 3.16 | 3.24 to 31.6 | O=S(=O)(c1ccccc1)N1CCC(c2cc(Cl)cc3[nH]ncc23)CC1 [Compound 138]
< 3.16 | 3.24 to 31.6 | O=C1NCC2CN(c3cc(Cl)cc4[nH]ncc34)CCN12 (centres unmarked) [Compound 88]
3.24 to 31.6 | 32.4 to 100 | CS(=O)(=O)c1ccc(Nc2cc(Cl)cc3[nH]ncc23)cc1 [Compound 180]
< 3.16 | 3.24 to 31.6 | CS(=O)(=O)N1CCCN(c2cc(Cl)cc3[nH]ncc23)CC1 [Compound 72]
< 3.16 | 3.24 to 31.6 | O=S(=O)(C1CC1)N1CCC(c2cc(Cl)cc3[nH]ncc23)CC1 [Compound 188]
3.24 to 31.6 | 32.4 to 100 | CS(=O)(=O)N1CCN(c2cc(-c3ccccc3)cc3[nH]ncc23)CC1 [Compound 33]
< 3.16 | 3.24 to 31.6 | CN(C)S(=O)(=O)N1CCC(c2cc(Cl)cc3[nH]ncc23)CC1 [Compound 173]
3.24 to 31.6 | 32.4 to 100 | O=S(=O)(Cc1ccccc1)N1CCN(c2cccc3[nH]ncc23)CC1 [Compound 13]
32.4 to 100 | 3.24 to 31.6 | CS(=O)(=O)N1CCC(c2ccc(Cl)c3[nH]ncc23)CC1 [Compound 42]
3.24 to 31.6 | 32.4 to 100 | CS(=O)(=O)N1CCC(c2cc(-c3ccccc3)cc3[nH]ncc23)CC1 [Compound 32]
< 3.16 | 3.24 to 31.6 | O=S(=O)(Cc1ccccc1)N1CCN(c2cc(Cl)cc3[nH]ncc23)CC1 [Compound 56]
< 3.16 | 3.24 to 31.6 | NS(=O)(=O)N1CCC(c2cc(Cl)cc3[nH]ncc23)CC1 [Compound 174]

The remaining lines, values behind:

SMILES | IC50 [1] [µM] | IC50 [2] [µM]
CS(=O)(=O)N1CCN(c2cc(-c3ncco3)cc3[nH]ncc23)CC1 [Compound 157] | > 100 | 32.4 to 100
CN1CC2CN(c3cccc4[nH]ncc34)CCN2C1=O (centres unmarked) [Compound 47] | 3.24 to 31.6 | > 100
CS(=O)(=O)N1CCN(c2cc(C3CCOCC3)cc3[nH]ncc23)CC1 [Compound 169] | 3.24 to 31.6 | > 100
O=C1NC(=O)C2(CCN(c3cc(C(F)(F)F)cc4[nH]ncc34)CC2)N1 [Compound 185] | < 3.16 | < 3.16
CS(=O)(=O)N1CCN(c2cccc3c(N)noc23)CC1 [Compound 120] | > 100 | 3.24 to 31.6
COc1cc(N2CCN(S(C)(=O)=O)CC2)c2cn[nH]c2c1 [Compound 69] | 3.24 to 31.6 | > 100
CN(C)C(=O)N1CCN(c2cc(Cl)cc3[nH]ncc23)CC1 [Compound 82] | < 3.16 | 3.24 to 31.6
C[C@@H]1CN(S(C)(=O)=O)CCN1c1cc(C(F)(F)F)cc2[nH]ncc12 [Compound 208] | < 3.16 | 3.24 to 31.6
Cc1n[nH]c2cc(Cl)cc(N3CCN(S(C)(=O)=O)CC3)c12 [Compound 66] | 3.24 to 31.6 | 3.24 to 31.6
CS(=O)(=O)N1CCN(c2ccc3[nH]ncc3c2)CC1 [Compound 43] | 3.24 to 31.6 | 32.4 to 100
CC(=O)N1[C@H](C)CN(c2cc(Cl)cc3[nH]ncc23)C[C@H]1C [Compound 103] | < 3.16 | > 100
CC(=O)N1CCN(c2cc(Cl)cc3c2cnn3C)CC1(C)C [Compound 104] | 3.24 to 31.6 | 32.4 to 100
O=C(C1COC1)N1CCN(c2cc(Cl)cc3[nH]ncc23)CC1 [Compound 204] | < 3.16 | > 100
O=C1NCCC12CCN(c1cc(Cl)cc3[nH]ncc13)CC2 [Compound 189] | 3.24 to 31.6 | 3.24 to 31.6
OCCNc1cc(Cl)cc2[nH]ncc12 [Compound 142] | 3.24 to 31.6 | > 100
CS(=O)(=O)N1CCC(Oc2cc(Cl)cc3c2cnn3CCO)CC1 [Compound 163] | > 100 | 32.4 to 100
CS(=O)(=O)N1CCN(c2cc(Cl)cc3[nH]nc(N)c23)CC1 [Compound 135] | 32.4 to 100 | 3.24 to 31.6
CC(=O)N1CCN(c2cc(C(F)(F)F)cc3[nH]ncc23)CC1(C)C [Compound 79] | < 3.16 | < 3.16
CC1(C)CN(c2cc(-c3ncco3)cc3[nH]ncc23)CCN1S(C)(=O)=O [Compound 171] | 3.24 to 31.6 | > 100
CC(=O)N1CC=C(c2cc(Br)cc3[nH]ncc23)CC1 [Compound 128] | < 3.16 | 3.24 to 31.6
CC(=O)Nc1cccc2[nH]ncc12 [Compound 6] | 32.4 to 100 | > 100
CNC(=O)CN1CCN(c2cc(Cl)cc3[nH]ncc23)CC1 [Compound 59] | < 3.16 | 3.24 to 31.6
COCC(=O)N1CCN(c2cc(Cl)cc3[nH]ncc23)CC1 [Compound 112] | < 3.16 | 3.24 to 31.6
CC(=O)N1CCN(c2cc(C3CCCC3)cc3[nH]ncc23)CC1(C)C [Compound 149] | 3.24 to 31.6 | 3.24 to 31.6
CN(C)C(=O)CN1CCN(c2cc(Cl)cc3[nH]ncc23)CC1 [Compound 65] | 3.24 to 31.6 | 32.4 to 100
CC(=O)N1CCN(c2cc(C(C)C)cc3[nH]ncc23)CC1(C)C [Compound 147] | 3.24 to 31.6 | 3.24 to 31.6
C[C@@H]1CN(c2cc(Cl)cc3[nH]ncc23)C[C@H](C)N1S(C)(=O)=O [Compound 134] | < 3.16 | < 3.16
CS(=O)(=O)N1CCN(c2cc(Br)cc3[nH]ncc23)CC1 [Compound 96] | < 3.16 | 3.24 to 31.6
CS(=O)(=O)N1CCN(c2cc(C(F)(F)F)cc3[nH]ncc23)CC1 [Compound 49] | < 3.16 | 3.24 to 31.6
